We go through four molecules from US6294562A, “Salts of ethyl 3-(2-(4-(4-amino-imino-methyl)phenyl)-4-methyl-2,5-dioxo-imidazolidin-1-yl )acetylamino)-3-phenylpropionate” (Hoechst Aktiengesellschaft, priority 1996, dated 2001).

The structures appear in SMILES notation.

A short description of this data set: Solid state form and hygroscopicity, as stated in the description. It is filed as physicochemical. The following applies: hydrochloride salts.

Consider `CCOC(=O)C[C@@H](NC(=O)CN1C(=O)N[C@](C)(c2ccc(C(=N)N)cc2)C1=O)c1ccccc1` [ethyl (R)-3-(2-((R)-4-(4-(amino-imino-methyl)phenyl)-4-methyl-2,5-dioxo-imidazolidin-1-yl)acetylamino)-3-phenylpropionate], for which the solid state form entry was “amorphous and cannot be obtained in the crystalline state”. With `CCOC(=O)C[C@@H](NC(=O)CN1C(=O)N[C@@](C)(c2ccc(C(=N)N)cc2)C1=O)c1ccccc1` [ethyl (R)-3-(2-((S)-4-(4-(amino-imino-methyl)phenyl)-4-methyl-2,5-dioxoimidazolidin-1-yl)acetylamino)-3-phenylpropionate], the solid state form result was “amorphous and cannot be obtained in the crystalline state”. Then `CCOC(=O)C[C@H](NC(=O)CN1C(=O)N[C@](C)(c2ccc(C(=N)N)cc2)C1=O)c1ccccc1` [ethyl (S)-3-(2-((R)-4-(4-(amino-imino-methyl)phenyl)-4-methyl-2,5-dioxoimidazolidin-1-yl)-acetylamino)-3-phenylpropionate], with “amorphous and cannot be obtained in the crystalline state”; and `CCOC(=O)C[C@H](NC(=O)CN1C(=O)N[C@@](C)(c2ccc(C(=N)N)cc2)C1=O)c1ccccc1` [ethyl (S)-3-(2-((S)-4-(4-(amino-imino-methyl)phenyl)-4-methyl-2,5-dioxoimidazolidin-1-yl)acetylamino)-3-phenylpropionate], with “amorphous and cannot be obtained in the crystalline state”.
